Laboratory results from patent US20220257741A1, “COMBINATION THERAPY FOR CANCER” (IO Biotech ApS, priority 2016, published 2022).

What was measured:
CT26 tumours = test: CT26 tumour model, prophylactic vaccination (Example 10); format: in vivo, BALB/c mice; details: 100 μg peptide + 30 μg CpG in Montanide, 7 days prior to tumour challenge
Experimental: BALB/c mice were prophylactically vaccinated with a mouse IDO peptide IDO-EP2 ([…]; SEQ ID NO: 34) and challenged with CT26 tumours 7 days later. The efficacy of the peptide vaccine was assessed by tumour burden. The mouse IDO peptide sequence (IDO-Pep1) was selected to provide a murine analog for the human IDO peptides tested in the earlier Examples, because the sequence of murine IDOL differs to that of human IDO1.
6-10 week-old BALB/c mice were immunized by subcutaneous injection at the base of the tail of 100 μg peptide IDO-EP2+30 μg CpG in 100 μL, Montanide adjuvant [Montanide ISA 51 VG (Seppic)] prepared as a 1:1 emulsification. Immunizations were carried out 7 days prior to tumour challenge. For CT26 tumour cell engraftment, each mouse received two subcutaneous injections (one on each flank) of 1×10^5 CT26 in 100 μL serum free DMEM. Caliper measurements of tumour length and width were recorded every 3-4 days beginning at day 6. Tumour volume was calculated using the formula 0.52(L×W^2). Mice were euthanized when the combined tumour volume reached the defined endpoint of approximately 2,000 mm^3.

TC-1 tumour = TC-1 tumour model, IDO-Pep1 with 1-MT (Example 9); format: in vivo, C57BL/6 mice; details: 1-MT 2 mg/ml in drinking water; IDO-Pep1 100 μg/mouse s.c.
Experimental: The efficacy of the vaccines was assessed by overall survival.
4-6 week-old C57BL/6 mice were injected with 70,000 cell/ mouse of TC-1 cells. Treatment in respective groups was started when tumour reached an average size of approximately 0.075 cm^3 (approx. 10 days after tumour inoculation). For vaccination mouse IDO epitope, IDO-Pep1 was used. Mice were vaccinated subcutaneously with IDO Pep-1 at a dosage of 100 μg/mouse in combination with a Pan-HLADR-binding epitope (PADRE; aK-Cha-[sequence]a, 20 μg/mouse) and QuilA (10 μg/mouse). Mice were vaccinated two-three times with one-week interval, and the efficacy of the peptide vaccines was assessed by measuring tumour volume and/or survival. A group of mice were treated with 1-methyl tryptophan (1-MT) given in drinking water (2 mg/ml) for the duration of the study, and additional group of mice were treated with both IDO-Pep1 and 1-MT.

PBMC = test: Direct IFN-γ ELISpot of patient PBMC stimulated with IO102 peptide; format: cell-based, human; details: patient PBMC at baseline, 5 μM peptide
THP-1 cells [1] = test: 51Cr-release assay, PBMC killing of THP-1 (Example 5); format: cell-based; details: peptide 0.1 μM
Experimental: (§1) Buffycoats were thawed (day 0), washed twice, resuspended in medium, counted and plated into wells as set out in Table Z5. THP-1 cells were irradiated with 30 GY and washed twice in medium. THP-1 cells were counted and added to PBMC containing wells as set out in Table Z5 (total volume 2 ml). Plates were placed in an incubator at 37 degrees. On day 7, 1 ml supernatant/well was removed. Fresh irradiated THP-1 cells were prepared and counted as above and 1 ml added to the wells as shown in Table Z5 Cells were harvested and analyzed for cytotoxic activity on day 23. A standard ^51Cr-release assay was used to measure the cytotoxic potential of the peptide treated PBMCs. ^51Cr labeled THP-1 cells were used as target cells and peptide treated PBMCs as effector cells. Triton-X treated wells was used as maximum measurable lysis and medium alone as minimum lysis.
% specific lysis=((CPMsample−cpmminimum)/(cpmmaximum−cpmminimum))×100%

THP-1 cells [2] = test: 51Cr-release assay, PBMC killing of THP-1 (Example 4); format: cell-based; details: peptide 0.1 μM, day 17, range of E/T ratios
Experimental: as §1, with “Z4.” for “Z5.”, “Z4” for “Z5”, “days 7 and 14,” for “day 7,”, “removed.” for “removed. Fresh irradiated THP-1 cells were prepared and counted as above and 1 ml added to the wells as shown in Table Z5”, “17.” for “23.”
% Specific lysis=((cpmsample−cpmminimum)/(cpmmaximum−cpmminimum))×100%

[3] = tested on: IDO-specific T cell cultures; test: Intracellular cytokine staining of IO102 stimulated T-cell cultures; format: cell-based, human; details: after four weeks of in vitro IO102 stimulation, patients #02, #05, #07
Experimental: PBMCs were stimulated with IO102 peptide in X-vivo 15 with 5% human AB serum and 120 U/ml IL2 (Novartis, Denmark) in 24 well plates (Nunc, Fischer Scientific). Initially, 20 μM peptide was used, and the cultures were re-stimulated every 7 days with a log10 decreased concentration of peptide for every week. Cell-cultures were supplemented with new IL2 every 7-10 days. Cells were kept at a concentration of 3-4×10^6/well.
For enrichment and expansion of the IDO-specific T cells, cultured cells were restimulated, after four weeks of culture, with 20 μM peptide and enriched with the TNF-α Secretion Assay (Miltenyi Biotec) according to the manufacturer's instructions. Cells were peptide stimulated 2.5 hours before staining with the primary antibody. Enriched cells were expanded in a modified rapid expansion protocol (see below).
T cells enriched for IDO-reactivity were expanded, and approximately 1-2×10^5 cells were used initially. […] Cultures were regularly assessed with regard to cell-numbers and colour of the media, and transferred to T80 or T175 flasks in addition to adding new media if appropriate. Cells were harvested after total 14 days of culture and either analyzed directly or cryopreserved in […] AB serum and 10% dimethyl sulphoxide. […]

CMV-specific CD8 T cells = test: Boost effect on CMV peptide-induced stimulation of T cells (tetramer staining, Example 2); format: cell-based; details: peptide added to CMV stimulated cell cultures, day 15
Experimental: Day 1: • Buffy coat samples were thawed, washed twice, resuspended in medium. Cells were counted. • Cells were then added to the wells of cell culture plates at 5×10^6/0.5 ml in X-VIVO+5% HS • Wells were stimulated with CMV peptide for 2 hours at room temperature. The CMV peptide used was HCMV pp65 495-504 ([…]). • After 2 hours IDO5, IO102 or an irrelevant HIV peptide used as control were added according to Table X and plates incubated for additional 2 hours at room temperature. • Added 1500 microL X-VIVO/5% HS to each well and placed plates in an incubator at 37° C.
Day 2 and 9: • IL2 was added ([…]
Day 8: • Wells were restimulated with IDO5, IO102 or HIV peptides, added according to table X before incubation for 2 hours at room temperature. • After restimulation the contents of each well were split in two and 1.5 ml X-VIVO+5% HS/well was added. • Plates were placed in an incubator at 37° C.
Day 15: • Cells were harvested and analysed by flow cytometry. • The percentage of CMV-specific CD8 T cells in each well was identified by using a CD8 monoclonal antibody (mAb) as well as the tetramer complexes HLA-A2/CMV pp65 495-504. • As control, cells were in addition stained with the tetramer complex HLA-A2/HIV-1 po1476-484 and CD8 mAb (data not shown).

LPTLSTDGL (listed as Homo sapiens) [IDO-EP2]
Anti-tumour effect (tumour volume) (CT26 tumours): anti-tumour protective effect

Cn1cc(C[C@H](N)C(=O)O)c2ccccc21 [1-MT, 1-methyltryptophan]
Therapeutic efficacy (survival) (TC-1 tumour): modest therapeutic efficacy

DTLLKALLEIASCLEKALQVF (listed as Homo sapiens) [IO102, 21 amino acid peptide, residues 194-214 of indoleamine 2,3-dioxygenase]
Pre-treatment IFN-γ ELISpot responses towards IO102 (PBMC): none of the patients had detectable pre-treatment responses | Allogenic killing of THP-1 cells compared to control peptide IDO scrambled (THP-1 cells [1]; day 23, E/T ratios 2:1-60:1): enhanced the allogenic killing of the THP-1 cells | Lysis of THP-1 cells compared to IDO5 peptide (THP-1 cells [1]; day 23, low E/T ratios): more efficient lysis of THP-1 cells | Allogenic killing (lysis) of THP-1 cells by PBMCs (THP-1 cells [2]): enhanced the allogenic killing of the THP-1 cells | Cytokine-positive T cells upon stimulation with IO102 [3]: enrichment of cytokine-positive T cells was demonstrated, primarily CD4+ | Fraction of CMV-specific T cells (CMV-specific CD8 T cells): larger fraction of CMV-specific T cells compared to adding IDO5/IO101
